In patent US6660864B2, “Polymorphic forms of 6-[4-(1-cyclohexyl-1H-tetrazol-5-yl)butoxy]-3,4-dihydro-2(1H)-quinolinone” (priority 2001, dated 2003):

Experiments:
[1] = Bioavailability of cilostazol polymorphic form; assay type: in vivo; details: Form A as prepared by the procedures of the '479 patent
[2] = Aqueous solubility of cilostazol polymorphic form; assay type: physicochemical; details: Form A as prepared by the procedures of the '479 patent
[3] = DSC heating of disturbed/stressed sample: solid state phase transformation to Form A; assay type: physicochemical; details: sample disturbed (scratching/stressed), DSC from 30° C. to approximately 200° C. at 10° C. per minute
Source text: Characterization of Form A of cilostazol, Form B of cilostazol, and Form C of cilostazol was further completed using DSC thermograms, shown in FIGS. 3, 4, and 5, respectively, with DSC thermograms for combinations of Form A and Form B; Form B and Form C; and Forms A, B, and C are shown in FIGS. 6, 7, and 8 respectively. DSC data were generated using a Mettler-Toledo DSC 821^e (Columbus, Ohio) with a Julabo FT900 intercooler chiller (Julabo Company; Allentown, Pa.). In general, samples were analyzed in a vented, sealed aluminum pan. Because the endothermic peak may vary depending upon the rate of heating and the calibration and precision of the instrument, with the amount of peak variation dependent upon the heating rate used, all thermograms included herein were run under the same, consistent conditions: heating at 10° C. per minute under a nitrogen purge at 40 mL/minute. The resultant sample of Example 1A was disturbed with scratching, which caused the cilostazol sample to undergo a solid state phase transformation at approximately 119° C. followed by an endotherm of melt at approximately 160° C. (Form A) during heating by DSC from 30° C. to approximately 200° C. at 10° C. per minute. When the sample is stressed and reheated (as detailed in Example 2A), the sample undergoes a solid state phase transformation at approximately 147° C. followed by an endotherm of melt at about 160° C. […]

[4] = Stability of the crystalline form; assay type: physicochemical
[5] = Relative solubility suggested by DSC thermogram (lower melting point, crystal packing forces); assay type: physicochemical; details: suggested by the lower melting point in DSC (FIG. 8)
Source text: Characterization of Form A of cilostazol, Form B of cilostazol, and Form C of cilostazol was further completed using DSC thermograms, shown in FIGS. 3, 4, and 5, respectively, with DSC thermograms for combinations of Form A and Form B; Form B and Form C; and Forms A, B, and C are shown in FIGS. 6, 7, and 8 respectively. DSC data were generated using a Mettler-Toledo DSC 821^e (Columbus, Ohio) with a Julabo FT900 intercooler chiller (Julabo Company; Allentown, Pa.). In general, samples were analyzed in a vented, sealed aluminum pan. Because the endothermic peak may vary depending upon the rate of heating and the calibration and precision of the instrument, with the amount of peak variation dependent upon the heating rate used, all thermograms included herein were run under the same, consistent conditions: heating at 10° C. per minute under a nitrogen purge at 40 mL/minute.
FIG. 8 illustrates a DSC thermogram for the combination of Form A, Form B and Form C having a second heating cycle with a maximum temperature of about 110° C. with a holding time of about 30 minutes. The peaks in the third heating cycle show a Form A to Form B to Form C peak area ratio of approximately 8:2:1, respectively, with the relative amount of Form A, Form B and Form C further variable on the heat of enthalpy of each polymorphic form.

## O=C1CCc2cc(OCCCCc3nnnn3C3CCCCC3)ccc2N1 [Form A, 6-[4-(1-cyclohexyl-1H-tetrazol-5-yl)butoxy]-3,4-dihydro-2(1H)-quinolinone]
[1]
  bioavailability: low bioavailability
[2]
  aqueous solubility: low aqueous solubility

## O=C1CCc2cc(OCCCCc3nnnn3C3CCCCC3)ccc2N1 [Form B, 6-[4-(1-cyclohexyl-1H-tetrazol-5-yl)butoxy]-3,4-dihydro-2(1H)-quinolinone]
[3]; listed as Example 1A
  solid state phase transformation temperature (to Form A): approximately 119 °C
[4]
  stability of the polymorphic form: stable
[5]
  solubility relative to Form A: more soluble than Form A

## O=C1CCc2cc(OCCCCc3nnnn3C3CCCCC3)ccc2N1 [Form C, 6-[4-(1-cyclohexyl-1H-tetrazol-5-yl)butoxy]-3,4-dihydro-2(1H)-quinolinone]
[3]; listed as Example 2A
  solid state phase transformation temperature (to Form A): approximately 147 °C
